# Laboratory results published in patent publication US20120148685A1, “METHODS AND COMPOSITIONS FOR TREATING INSULIN RESISTANCE, DIABETES MELLITUS TYPE 2, METABOLIC SYNDROME AND RELATED DISORDERS” (Engergy4Life AG, priority 2009, published 2012).
# Marks after values point to notes of the source that are not given here.
# Experiments:
# [1] = Feed intake, body weight development and feed conversion ratio of Zucker rats fed supplemented diets; type: in vivo; details: obese (fa/fa) Zucker rats, supplemented diet fed 4 wk, means ± SD (n = 12)
# From the text: Zucker rats are an established model of human early-onset, hyperplastic-hypertrophic obesity and insulin resistance as well as human non-insulin dependent diabetes mellitus.
# (§1) A total of 60 male, 8-10 week old, obese (fa/fa) Zucker rats (Crl:ZUC-Leprfa; Charles River, France) with an initial body weight of 358±24 (mean±SD) g were randomly assigned to five groups of twelve rats each. In addition, 12 male, 8-10 week old, heterozygous lean (fa/+) Zucker rats with an initial body weight of 271±10 g were used as a lean control group. All rats were kept individually in Macrolon cages in a room maintained at 22±1° C. and 50-60% relative humidity with lighting from 06.00 to 18.00 hours. All experimental procedures described followed established guidelines for the care and handling of laboratory animals and were approved by the local Animal Care and Use Committee.
# (§2) The rats were fed semi-purified diets which were composed according to the recommendations of the American Institute of Nutrition (AIN)-93G. Five different diets were used differing in their supplementation. […] Diets were prepared by mixing the dry components and subsequent pelleting with a standard pelleting device (Kahl Laborpressanlage Typ 14-175; Reinbek, Germany). Feed was administered ad libitum, and feed intake was recorded weekly. Experimental diets were fed for 4 weeks. Water was available ad libitum from nipple drinkers during the whole experiment.
# [2] = Organ weights of the rats; type: in vivo; details: obese (fa/fa) Zucker rats, supplemented diet fed 4 wk, means ± SD (n = 12)
# Experimental: (§3) All rats were kept individually in Macrolon cages in a room maintained at 22±1° C. and 50-60% relative humidity with lighting from 06.00 to 18.00 hours. All experimental procedures described followed established guidelines for the care and handling of laboratory animals and were approved by the local Animal Care and Use Committee.
# (§4) Five different diets were used differing in their supplementation. […] Feed was administered ad libitum, and feed intake was recorded weekly. Experimental diets were fed for 4 weeks. Water was available ad libitum from nipple drinkers during the whole experiment.
# [3] = Plasma and lipoprotein lipid concentrations (triacylglycerol, cholesterol; enzymatic kits); type: in vivo, Zucker rats; details: obese (fa/fa) Zucker rats, supplemented diet 4 wk, fasted, means ± SD (n = 12)
# Experimental: as §1, §2
# (§5) The rats were decapitated under CO2 anesthesia in the fasted state. Whole blood was collected into EDTA polyethylene tubes (Sarstedt, Nürnbrecht, Germany). Plasma was separated from whole blood by centrifugation (1,100×g; 10 min) at 4° C. Lipoproteins [VLDL, LDL and high-density lipoproteins (HDL)] were separated by step-wise ultracentrifugation (900,000×g, 1.5 h, 4° C.; Mikro-Ultrazentrifuge, Sorvall Products, Bad Homburg, Germany). All samples were stored at −20° C. pending analysis.
# Triacylglycerol and cholesterol concentrations in plasma and lipoproteins were determined using enzymatic reagent kits from Biocon (Vöhl-Marienhagen, Germany).
# [4] = Fasting glucose concentration in plasma; type: in vivo, Zucker rats; details: obese (fa/fa) Zucker rats, supplemented diet 4 wk, fasted, means ± SD (n = 12)
# Experimental: as §1, §2, §5
# Glucose concentration in plasma was determined by an enzymatic reagent kit from Analyticon Biotechnologies (Lichtenfels, Germany).
# [5] = Non-esterified fatty acids (NEFA) in plasma; type: in vivo, Zucker rats; details: obese (fa/fa) Zucker rats, supplemented diet 4 wk, fasted, means ± SD (n = 12)
# Experimental: as §1, §2, §5
# NEFA concentrations in plasma were determined using the NEFA kit from Wako Chemicals (Neuss, Germany).
# [6] = system: leptin; test: Leptin in plasma (rat ELISA); type: in vivo, Zucker rats; details: obese (fa/fa) Zucker rats, supplemented diet 4 wk, fasted, means ± SD (n = 12)
# Experimental: as §1, §2, §5
# (§6) Concentrations of leptin in plasma was determined by rat ELISA kits from BioVendor (Heidelberg, Germany). Concentration of high molecular weight adiponectin was determined by a rat ELISA kit from Shibayagi (Ishihara, Shibukawa, Gunma, Japan).
# [7] = system: high molecular weight adiponectin; test: High molecular weight adiponectin in plasma (rat ELISA); type: in vivo; details: obese (fa/fa) Zucker rats, supplemented diet 4 wk, fasted, means ± SD (n = 12)
# Experimental: as §1, §2, §5, §6
# [8] = system: sterol regulatory element-binding protein (SREBP)-1c; test: Relative mRNA concentration in liver, lipogenesis: SREBP-1c; type: in vivo, Zucker rats; details: liver of obese Zucker rats, diet 4 wk, obese control = 1.00, means ± SD (n = 12)
# Experimental: as §3, §4
# [9] = system: fatty acid synthase (FAS); test: Relative mRNA concentration in liver, lipogenesis: FAS; type: in vivo, Zucker rats; details: liver of obese Zucker rats, diet 4 wk, obese control = 1.00, means ± SD (n = 12)
# Experimental: as §3, §4
# [10] = system: stearoyl-CoA desaturase (SCD); test: Relative mRNA concentration in liver, lipogenesis: SCD; type: in vivo; details: liver of obese Zucker rats, diet 4 wk, obese control = 1.00, means ± SD (n = 12)
# Experimental: as §3, §4
# [11] = system: fatty acid binding protein (FABP); test: Relative mRNA concentration in liver, fatty acid uptake: FABP; type: in vivo, Zucker rats; details: liver of obese Zucker rats, diet 4 wk, obese control = 1.00, means ± SD (n = 12)
# Experimental: as §3, §4
# [12] = system: fatty acid transport protein (FATP); test: Relative mRNA concentration in liver, fatty acid uptake: FATP; type: in vivo; details: liver of obese Zucker rats, diet 4 wk, obese control = 1.00, means ± SD (n = 12)
# Experimental: as §3, §4
# [13] = system: scavenger receptor CD36; test: Relative mRNA concentration in liver, fatty acid uptake: CD36; type: in vivo; details: liver of obese Zucker rats, diet 4 wk, obese control = 1.00, means ± SD (n = 12)
# Experimental: as §3, §4
# [14] = system: lipoprotein lipase (LPL); test: Relative mRNA concentration in liver, fatty acid uptake: LPL; type: in vivo; details: liver of obese Zucker rats, diet 4 wk, obese control = 1.00, means ± SD (n = 12)
# Experimental: as §3, §4
# [15] = system: acyl-CoA oxidase (ACO); test: Relative mRNA concentration in liver, fatty acid oxidation: ACO; type: in vivo; details: liver of obese Zucker rats, diet 4 wk, obese control = 1.00, means ± SD (n = 12)
# Experimental: as §3, §4
# [16] = system: liver-type carnitine-palmitoyltransferase (L-CPT) I; test: Relative mRNA concentration in liver, fatty acid oxidation: L-CPT I; type: in vivo; details: liver of obese Zucker rats, diet 4 wk, obese control = 1.00, means ± SD (n = 12)
# Experimental: as §3, §4
smiles,measurement,setting,value
"CC/C=C\C/C=C\C/C=C\C/C=C\C/C=C\C/C=C\CCC(=O)O [DHA, docosahexaenoic acid]",Daily body weight gain,[1],5.14 ± 0.60 ^a g
same,Feed conversion ratio,[1],5.01 ± 0.28 ^c g/g
same,Feed intake,[1],25.7 ± 2.9 ^ab g/d
same,Final body weight,[1],505 ± 34 ^a g
same,Total body weight gain,[1],146 ± 17 ^a g
same,Absolute organ weights: Heart,[2],1.36 ± 0.13 g
same,Absolute organ weights: Kidney,[2],2.59 ± 0.38 g
same,Absolute organ weights: Liver,[2],24.7 ± 3.7 ^a g
same,Relative organ weights: Heart,[2],2.70 ± 0.21 ^b mg/g body weight
same,Relative organ weights: Kidney,[2],5.16 ± 0.91 mg/g body weight
same,Relative organ weights: Liver,[2],48.6 ± 4.9 ^a mg/g body weight
same,"Cholesterol, HDL",[3],4.51 ± 0.45 ^a mmol/L
same,"Cholesterol, Plasma",[3],8.30 ± 1.00 ^a mmol/L
same,"Cholesterol, VLDL + LDL",[3],3.62 ± 0.53 ^a mmol/L
same,"Triacylglycerols, Plasma",[3],4.73 ± 0.98 ^bc mmol/L
same,"Triacylglycerols, VLDL + LDL",[3],2.81 ± 0.52 ^b mmol/L
same,Glucose in plasma,[4],7.99 ± 0.77 ^ab mmol/L
same,NEFA in plasma,[5],2.42 ± 0.53 ^b mmol/L
same,Leptin in plasma,[6],7.27 ± 1.09 ^a ng/mL
same,Adiponectin in plasma,[7],120 ± 22 ng/mL
same,"Relative mRNA concentration, SREBP-1c",[8],0.81 ± 0.32 ^ab
same,"Relative mRNA concentration, FAS",[9],0.71 ± 0.55 ^ab
same,"Relative mRNA concentration, SCD",[10],1.01 ± 0.45 ^a
same,"Relative mRNA concentration, FABP",[11],0.99 ± 0.19 ^a
same,"Relative mRNA concentration, FATP",[12],1.07 ± 0.90
same,"Relative mRNA concentration, CD36",[13],0.91 ± 0.38 ^a
same,"Relative mRNA concentration, LPL",[14],1.26 ± 0.36
same,"Relative mRNA concentration, ACO",[15],1.27 ± 0.35
same,"Relative mRNA concentration, L-CPT I",[16],1.31 ± 0.69
